Like-named read-outs stand apart in the source and are kept apart here. Marks after values point to notes of the source that are not given here.
Assays:
[1] = tested on: gouty arthritis rats (sodium urate, right ankle and knee joint cavities); experiment: Pharmacodynamics experiment B on gouty arthritis rats: gait score; format: in vivo, SD rats; conditions: for Gait Score: mean
In short: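 Male SD rats (180-220 g) received test compounds by gavage as 0.5% CMC-Na suspensions, once daily for 7 days before modeling and for 3 days afterward. Gouty arthritis was induced by injecting 0.2 mL sodium urate solution into the right ankle and knee joint cavities. Gait was graded 0-3 using modified Coderre criteria, and group mean scores were compared with the model group by ANOVA-Dunnett T-test (P<0.05).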

[2] = tested on: gouty arthritis in rats (urate crystals, left ankle joint); experiment: Pharmacodynamics experiment A on gouty arthritis in rats: gait score; format: in vivo, SD rats; set-up: Gait Score: scale not given here; conditions: 0.6 mg/kg gavage; for Gait Score: Mean ± SEM
Description: Compounds 2, 17, 26 and 27 were prepared by grinding with 0.5% CMC-Na into a suspension of the corresponding concentration (0.06 mg/mL) for gavage before administration, and the volume of administration was 10 mL/kg. […] Before use, 0.5% CMC-Na was used for grinding and prepared into a suspension of the corresponding concentration (0.06 mg/mL) for gavage, and the volume of drug administered was 10 mL/kg.
Each group of subjects was prepared into a suspension of the corresponding concentration, and the administration volume was 10 mL/kg.
The crystalline arthritis model was prepared by intra-articular injection of urate crystals (40 mg/mL, in the left ankle joint of each rat). Different doses of the test drug were given separately by gavage administration. The day of administration was defined as day 1 of the experiment, and the drug was administered once a day for 10 consecutive days (pre-administration of the drug for 7 days prior to modeling, modeling on day 8, and continuation of the drug for 3 days). The experiment ended on day 10.
The degree of lameness of the modeled joints was observed and scored at the same time point.
The data obtained from the experiment were statistically analyzed using IBM SPSS Statistics 22.0. All measurements were expressed as Mean±S.E.M s. The data were analyzed using SPSS 22.0 statistical software and variance chi-square test was performed on the parameters.

[3] = tested on: TNF-α; experiment: Inflammatory factor experiment A: TNF-α in gouty arthritis rats; format: in vivo, SD rats
Description: Compounds 14, 17 and 26 were prepared by grinding with 0.5% CMC-Na before administration and into a suspension for gavage at the corresponding concentration (0.06 mg/mL), with a dosage volume of 10 mL/kg. Colchicine, purchased from Sun Chemical Technology (Shanghai) Co., Ltd. with batch no. 49ETRRAS, and was prepared by grinding with 0.5% CMC-Na before administration and into a suspension for gavage at the corresponding concentration (0.06 mg/mL), with a dosage volume of 10 mL/kg.
The compounds in each group were prepared into a suspension of the corresponding concentration, and the dosage volume was 10 mL/kg.
The crystalline arthritis model was prepared by intra-articular injection of urate crystals (40 mg/mL in the left ankle joint of each rat). Different doses of the test compounds were given separately by gavage administration. The day of administration was defined as day 1 of the experiment, and the compounds were administered once a day for 10 consecutive days (pre-administration of the drug for 7 days prior to modeling, modeling on day 8, and continuation of the drug for 3 days). The experiment ended on day 10. […]

[4] = In vivo pharmacokinetics in SD rats; conditions: for AUC(0-inf): read-out: AUCINF; for MRT inf: read-out: MRTINF
In short: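 SD rats received compound intravenously (0.5 mg/mL solution) or by oral gavage (1 mg/mL, fasted overnight), both formulated in DMSO/Solutol HS15/saline. Plasma compound concentrations were measured by LC/MS/MS. Non-compartmental parameters were then calculated.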

[5] = Sprague-Dawley, rat, in vivo, po, Gavage - 10 mg/kg
[6] = Sprague-Dawley, rat, in vivo, Intravenous injection - 1 mg/kg

Compound: COc1cc2c(c(OC)c1OC)-c1ccc(OC)c(=O)cc1[C@@H](NC(C)=O)CC2 [colchicine, reference compound]
- Gait Score ([1]; 2 h, dose 0.6 mg/kg gavage): 0
- Gait Score ([1]; 2 h, dose 1.2 mg/kg gavage (high dose group)): 0
- Gait Score ([1]; 4 h, dose 0.6 mg/kg gavage): 0.02*
- Gait Score ([1]; 4 h, dose 1.2 mg/kg gavage (high dose group)): 0**
- Gait Score ([1]; 8 h, dose 0.6 mg/kg gavage): 0.24*
- Gait Score ([1]; 8 h, dose 1.2 mg/kg gavage (high dose group)): 0.1**
- Gait Score ([1]; 10 h, dose 0.6 mg/kg gavage): 0.16**
- Gait Score ([1]; 10 h, dose 1.2 mg/kg gavage (high dose group)): 0.18**
- Gait Score ([1]; 24 h, dose 0.6 mg/kg gavage): 0.02*
- Gait Score ([1]; 24 h, dose 1.2 mg/kg gavage (high dose group)): 0*
- Gait Score ([1]; 48 h, dose 0.6 mg/kg gavage): 0.02
- Gait Score ([1]; 48 h, dose 1.2 mg/kg gavage (high dose group)): 0
- Gait versus model group, in words ([1]; compounds 0.6 mg/kg, colchicine 0.6 and 1.2 mg/kg): significantly improved the gait of rats
- Gait versus model group, in words ([2]; time points after modeling, P<0.05 or P<0.01): improved the gait of rats at 2 h, 24 h, and 48 h after modeling
- Gait Score ([2]; 2 h after modeling): 1.10 ± 0.10
- Gait Score ([2]; 4 h after modeling): 1.10 ± 0.10
- Gait Score ([2]; 8 h after modeling): 1.30 ± 0.15
- Gait Score ([2]; 10 h after modeling): 1.30 ± 0.21
- Gait Score ([2]; 24 h after modeling): 1.00 ± 0.00
- Gait Score ([2]; 48 h after modeling): 1.00 ± 0.00
- Gait Score ([2]; before modeling): 0.00 ± 0.00
- TNF-α level after modeling, in words ([3]; 0.6 mg/kg): can reduce the TNF-α level
- Decreased TNF-α percentage % ([3]; synovial tissue of knee joints, dose 0.6 mg/kg gavage, day 10): 93.73%
- F ([4]; Gavage - 10 mg/kg, calculated by AUCINF): 8.73%
- AUC(0-inf) [4, 5]: 735 ng·h/mL
- Cmax ([4]; Sprague-Dawley, rat, in vivo, po, Gavage - 10 mg/kg, read-out: Cmax): 175 ng/mL
- MRT inf [4, 5]: 25.7 h
- Tmax ([4]; Sprague-Dawley, rat, in vivo, po, Gavage - 10 mg/kg, read-out: Tmax): 0.417 h
- AUC(0-inf) [4, 6]: 567 ng·h/mL
- clearance ([4]; Sprague-Dawley, rat, in vivo, Intravenous injection - 1 mg/kg, read-out: CL (converted)): 31.8 mL/min/kg
- MRT inf [4, 6]: 11 h
- Vd ([4]; Sprague-Dawley, rat, in vivo, Intravenous injection - 1 mg/kg, read-out: VSS): 17.6 L/kg
